The subject of this test is Phakopsora pachyrhizi. The test is described as follows: Asian soybean rust (PHAKPA) disease control on soybean seedlings. The format is in vivo. Conditions: High volume application at 25 ppm; for pest or weed control at 25 ppm: Phakopsora pachyrhizi. The method, then: Example C: Evaluation of Fungicidal Activity: Asian Soybean Rust (Phakopsora pachyrhizi; Bayer Code […]) Technical grades of materials were dissolved in acetone, which were then mixed with nine volumes of water containing 0.011% Tween 20. The fungicide solutions were applied onto soybean seedlings using an automated booth sprayer to run-off. All sprayed plants were allowed to air dry prior to further handling. Soybean plants (variety Williams 82) were grown in soil-less Metro mix, with one plant per pot. Two week old seedlings were used for testing. Plants were inoculated either 3 days prior to or 1 day after fungicide treatments. Plants were incubated for 24 h in a dark dew room at 22° C. and 100% relative humidity then transferred to a growth room at 23° C. for disease to develop. Disease severity was assessed on the sprayed leaves.

Where [1] appears, read: 24 h, 1 day protectant, read-out: PHAKPA 1DP (1 Day Protectant) disease control.
[2] abbreviates: 72 h, 3 day curative, read-out: PHAKPA 3DC (3 Day Curative) disease control.

Read-outs that look alike come from different tables or passages of the source.

On to `COc1ccc([C@@H](C)[C@@H](C)OC(=O)[C@H](C)NC(=O)c2nccc(OC)c2OC(C)=O)c(C)c1` [Example 183], for which the pest or weed control at 25 ppm is over 80% under setting [1] and under 80% under setting [2].
Turning to `COc1ccnc(C(=O)N[C@H](C(=O)O[C@@H](C)[C@@H](C)c2ccc(F)cc2C)C(C)C)c1OC(C)=O` [Example 184], the pest or weed control at 25 ppm is over 80% under setting [1] and over 80% under setting [2].
For `COc1ccnc(C(=O)N[C@H](C(=O)O[C@@H](C)[C@H](C)c2ccc(F)cc2C)C(C)C)c1OC(C)=O` [Example 185], the pest or weed control at 25 ppm was under 0% under setting [1] and under 0% under setting [2].
In the case of `COc1ccnc(C(=O)N[C@H](C(=O)O[C@@H](C)[C@H](C)c2ccccc2C)C(C)C)c1OC(C)=O` [Example 186], the pest or weed control at 25 ppm is under 80% under setting [1] and under 80% under setting [2].
For `COc1ccnc(C(=O)N[C@H](C(=O)O[C@@H](C)[C@@H](C)c2ccc(F)cc2)C(C)C)c1OC(C)=O` [Example 187], the pest or weed control at 25 ppm was over 80% under setting [1] and under 0% under setting [2].
`COc1ccc([C@H](C)[C@H](C)OC(=O)[C@@H](NC(=O)c2nccc(OC)c2OC(C)=O)C(C)C)c(C)c1` [Example 188]: the pest or weed control at 25 ppm is, setting by setting: under setting [1], over 80%; under setting [2], under 80%.
In the case of `COc1ccnc(C(=O)N[C@H](C(=O)O[C@H](C)[C@H](C)c2ccc(F)cc2C)C(C)C)c1OC(C)=O` [Example 189], the pest or weed control at 25 ppm by setting is: under setting [1], over 80%; under setting [2], under 80%.
Turning to `COc1ccnc(C(=O)N[C@H](C(=O)O[C@H](C)[C@@H](C)c2ccc(F)cc2C)C(C)C)c1OC(C)=O` [Example 190], the pest or weed control at 25 ppm runs as follows: under setting [1], under 0%; under setting [2], under 0%.
As to `COc1ccnc(C(=O)N[C@H](C(=O)O[C@H](C)[C@@H](C)c2ccccc2C)C(C)C)c1OC(C)=O` [Example 191], the pest or weed control at 25 ppm under setting [1] is under 80% and the pest or weed control at 25 ppm under setting [2] is under 80%.
For `COc1ccnc(C(=O)N[C@H](C(=O)O[C@H](C)[C@H](C)c2ccc(F)cc2)C(C)C)c1OC(C)=O` [Example 192], the pest or weed control at 25 ppm runs as follows: under setting [1], under 80%; under setting [2], under 0%.
On the same counts, the results for `COc1ccc([C@@H](C)[C@@H](C)OC(=O)[C@@H](NC(=O)c2nccc(OC)c2OC(C)=O)C(C)C)c(C)c1` [Example 193] are under 80% and under 0%.
On the same counts, the results for `COc1ccnc(C(=O)N[C@H](C)C(=O)O[C@@H](C)[C@H](C)c2ccccc2C)c1OC(C)=O` [Example 194] are under 0% and under 0%.
Consider `COc1ccnc(C(=O)N[C@H](C)C(=O)O[C@H](C)[C@H](C)c2ccc(F)cc2C)c1OC(C)=O` [Example 195], for which the pest or weed control at 25 ppm is, setting by setting: under setting [1], under 80%; under setting [2], under 0%.
For `COc1ccnc(C(=O)NCC(=O)O[C@@H](C)[C@@H](C)c2ccc(F)cc2C)c1OC(=O)C(C)C` [Example 196], the “PHAKPA 1DP (1 Day Protectant) disease control” value (from here on “PHAKPA 1DP”) (1 day protectant) is “A (>80)”. Also, under “3 day curative”, the “PHAKPA 3DC (3 Day Curative) disease control” value (“PHAKPA 3DC” for short) is “B (≤80)”.
On to `COc1ccnc(C(=O)NCC(=O)O[C@@H](C)[C@H](C)c2ccc(F)cc2C)c1OC(=O)C(C)C` [Example 197], for which the pest or weed control at 25 ppm under setting [1] is under 0% and the pest or weed control at 25 ppm under setting [2] was under 0%.
In the case of `COc1ccnc(C(=O)NCC(=O)O[C@@H](C)[C@H](C)c2ccccc2C)c1OC(=O)C(C)C` [Example 198], the pest or weed control at 25 ppm was under 0% under setting [1] and under 0% under setting [2].
Consider `COc1ccnc(C(=O)NCC(=O)O[C@@H](C)[C@@H](C)c2ccc(F)cc2)c1OC(=O)C(C)C` [Example 199], for which the pest or weed control at 25 ppm was under 0% under setting [1] and under 0% under setting [2].
With `COc1ccc([C@H](C)[C@H](C)OC(=O)CNC(=O)c2nccc(OC)c2OC(=O)C(C)C)c(C)c1` [Example 200], for the setting “3 day curative”, the “PHAKPA 3DC” value is reported as “B (≤80)”. Further, the pest or weed control at 25 ppm under setting [1] was under 80%.
As for `COc1ccnc(C(=O)N[C@@H](C)C(=O)O[C@@H](C)[C@H](C)c2ccc(F)cc2C)c1OC(=O)C(C)C` [Example 201], the pest or weed control at 25 ppm under setting [1] is under 80% and the pest or weed control at 25 ppm under setting [2] is under 80%.
As to `COc1ccnc(C(=O)N[C@@H](C)C(=O)O[C@@H](C)[C@H](C)c2ccccc2C)c1OC(=O)C(C)C` [Example 202], the “PHAKPA 1DP” value (1 day protectant) was “B (≤80)”. Further, the pest or weed control at 25 ppm under setting [2] was under 0%.
Regarding `COc1ccnc(C(=O)N[C@@H](C)C(=O)O[C@@H](C)[C@@H](C)c2ccc(F)cc2)c1OC(=O)C(C)C` [Example 203], the “PHAKPA 1DP” value (1 day protectant) is “A (>80)”. Also, under “3 day curative”, the “PHAKPA 3DC” value is listed as “B (≤80)”.
Take `COc1ccc([C@H](C)[C@H](C)OC(=O)[C@H](C)NC(=O)c2nccc(OC)c2OC(=O)C(C)C)c(C)c1` [Example 204]: the “PHAKPA 1DP” value (1 day protectant) is reported as “A (>80)”. The “PHAKPA 3DC” value (3 day curative) is given as “A (>80)”.
As to `COc1ccnc(C(=O)N[C@H](C(=O)O[C@@H](C)[C@@H](C)c2ccc(F)cc2C)C(C)C)c1OC(=O)C(C)C` [Example 205], where the note is “3 day curative”, the “PHAKPA 3DC” value is given as “B (≤80)”. Moreover, the pest or weed control at 25 ppm under setting [1] was over 80%.
As for `COc1ccnc(C(=O)N[C@H](C(=O)O[C@@H](C)[C@@H](C)c2ccc(F)cc2C)C(C)C)c1OC(=O)C(C)C` [Example 206], the “PHAKPA 1DP” value (1 day protectant) is reported as “B (≤80)”. Besides, the “PHAKPA 3DC” value (3 day curative) is “D (≤0)”.
In the case of `COc1ccnc(C(=O)N[C@H](C(=O)O[C@@H](C)[C@@H](C)c2ccc(F)cc2C)C(C)C)c1OC(=O)C(C)C` [Example 207], the “PHAKPA 1DP” value (1 day protectant) was “B (≤80)”. Besides, the “PHAKPA 3DC” value (3 day curative) is “D (≤0)”.
For the compound `COc1ccnc(C(=O)N[C@H](C(=O)O[C@@H](C)[C@@H](C)c2ccc(F)cc2C)C(C)C)c1OC(=O)C(C)C` [Example 208], the “PHAKPA 1DP” value (1 day protectant) was “A (>80)”. Moreover, the “PHAKPA 3DC” value (3 day curative) is reported as “D (≤0)”.
In the case of `COc1ccnc(C(=O)N[C@H](C(=O)O[C@@H](C)[C@@H](C)c2ccc(F)cc2C)C(C)C)c1OC(=O)C(C)C` [Example 209], the “PHAKPA 1DP” value (1 day protectant) is reported as “A (>80)”. Besides, for the setting “3 day curative”, the “PHAKPA 3DC” value is recorded as “A (>80)”.
`COc1ccnc(C(=O)N[C@H](C(=O)O[C@@H](C)[C@H](C)c2ccc(F)cc2C)C(C)C)c1OC(=O)C(C)C` [Example 210]: the pest or weed control at 25 ppm reads like this: under setting [1], under 0%; under setting [2], under 0%.
Consider `COc1ccnc(C(=O)N[C@H](C(=O)O[C@@H](C)[C@H](C)c2ccccc2C)C(C)C)c1OC(=O)C(C)C` [Example 211], for which the pest or weed control at 25 ppm reads like this: under setting [1], under 80%; under setting [2], under 0%.
Consider `COc1ccnc(C(=O)N[C@H](C(=O)O[C@@H](C)[C@@H](C)c2ccc(F)cc2)C(C)C)c1OC(=O)C(C)C` [Example 212], for which the pest or weed control at 25 ppm runs as follows: under setting [1], under 80%; under setting [2], under 80%.
Regarding `COc1ccc([C@H](C)[C@H](C)OC(=O)[C@@H](NC(=O)c2nccc(OC)c2OC(=O)C(C)C)C(C)C)c(C)c1` [Example 213], the pest or weed control at 25 ppm by setting is: under setting [1], over 80%; under setting [2], under 80%.
